# In patent US20030194750A1, “Methods for treatment of diseases where GSK 3-beta is desired, and methods to identify compounds usefule for that” (priority 2002, published 2003):
# Counter-ions that a name gives are not always drawn.
# Assays:
# rats [1] = test: Acute toxicity study in rats; conditions: rat, in vivo
# dogs [2] = test: 91-day oral study in dogs; assay type: in vivo, dog
# rats [3] = test: 28-day study in rats; assay type: in vivo, rat
# Description: A 28-day study in rats was also carried out at 0, 50, 500 and 2000 mg/kg/day.
# human patients = test: Single, escalating dose human clinical safety study; assay type: in vivo; conditions: oral, 50 mg BID, 100 mg BID, 200 mg BID and 400 mg BID
# [4] = target: T1, GST-cGB-PDE5 fusion protein (Homo sapiens, UniProt O76074); test: cGMP binding assay with GST-cGB-PDE5 fusion protein; conditions: 3H-cGMP 2 μM, 22° C., 1 hour
# T1 construct: made in house; host or cells: E. coli BL21 (DE3)
# Description: 5′-3′, Inc. kits for total RNA followed by oligo (dT) column purification of mRNA are used with HT-29 cells. […] It is then cloned into pGEX-5X-3 glutathione-S-transferase (GST) fusion vector (Pharmacia Biotech) with tac promoter, and EcoRI and XhoI cut sites. The fusion vector is then transfected into E. Coli BL21 (DE3) bacteria (Invitrogen). The transfected BL21 bacteria is grown to log phase, and then IPTG is added as an inducer. The induction is carried at 20° C. for 24 hrs. The bacteria are harvested and lysed. The soluble cell lysate is incubated with GSH conjugated Sepharose 4B (GSH-Sepharose 4B). The GST-cGB-PDE5 fusion protein can bind to the GSH-Sepharose beads, and the other proteins are washed off from beads with excessive cold PBS.
# Then, the mixture is transferred to Brandel MB-24 cell harvester with GF/B as the filter membrane followed by 2 washes with 10 mL of cold 5 mM potassium buffer( pH 6.8). The membranes are then cut out and transferred to scintillation vials followed by the addition of 1 mL of H2O and 6 mL of Ready Safe™ liquid scintillation cocktail to each vial. The vials are counted on a Beckman LS 6500 scintillation counter.
# The quenching by filter membrane or other debris are also calibrated.
# PDE1 = test: PDE inhibition, similar protocols; assay type: biochemical
# PKG1β = test: Western blot of PKG1β in SW480 cells; assay type: cell-based, human; conditions: various concentrations, 48 hours
# Description: (§1) 50 μg protein/lane were analyzed by Western blot analysis using specific anti-PKG1β and anti-GSK3β-phospho-ser9 antibodies.
# rats [5] = test: Seven-day dose-range finding study in rats; assay type: in vivo, rat; conditions: 7 days
# PDE 5 = PDE 5 (Homo sapiens, UniProt O76074); test: Competitive (with cGMP) binding to PDE5
# GSK3β = test: Western blot of GSK3β-phospho-ser9 in SW480 cells; assay type: cell-based, human; conditions: various concentrations, 48 hours, vs 0 concentration
# Description: as §1
# PDE4 = test: PDE inhibition, similar protocols; assay type: biochemical
# dogs [6] = test: Acute and seven-dose toxicity in dogs; conditions: dog, in vivo
# Description: Therefore, these dogs were subsequently administered seven consecutive doses of 1000 mg/kg/day.
# rats [7] = test: Long-term (91-day) safety assessment study in rats; assay type: in vivo, rat
# Text: These changes were not associated with any gross clinical abnormality.
# PKG [8] = test: PKG activity assay on lysates of drug-treated HCT116 colon cancer cells; assay type: cell-based, human; conditions: HCT116 cells (β-catenin mutation, no APC mutation), same procedure as SW480
# Text: HCT116 is known to contain the β-catenin mutation, but is known not to contain the APC mutation.
# The same procedure is used to grow the HCT116 cells as is used in the SW480 procedure described above. In this experiment, only exisulind and controls were used.
# β-catenin = test: Western blot of β-catenin in SW480 cells; assay type: cell-based, human
# Description: (§2) SW480 cells treated with exisulind as described previously are harvested from the microfuge tubes by rinsing once with ice-cold PBS. The cells are lysed by modified RIPA buffer for 15 minutes with agitation. The cell lysate is spun down in a cold room. The supernatants are transferred to fresh microcentrifuge tubes immediately after spinning. BioRad DC Protein Assay (Temecula, Calif.) is performed to determine the protein concentrations in samples. The samples are normalized for protein concentration, as described above.
# (§3) 50 μg of each sample is loaded to 10% SDS gel. SDS-PAGE is performed, and the proteins then are transferred to a nitrocellulose membrane. The blotted nitrocellulose membrane are blocked in freshly prepared TBST containing 5% nonfat dry milk for one hour at room temperature with constant agitation.
# SW480 cells were treated with exisulind or vehicle (0.1% DMSO) for 48 hours. 50 μg supernatant of each cell lysates were loaded to 10% SDS-gel and blotted to nitrocellulose membrane, and the membrane was probed with rabbit-anti-β-catenin and rabbit anti-PKG antibodies.
# This observation was made by culturing SW480 cells with either 200, 400 or600 μM exisulind or vehicle (0.1% DMSO). The cells are harvested 48 hours post treatment and processed for immunoblotting. Immuno-reactive protein can be detected by Western blot. […]
# PKG [9] = test: PKG activity assay on lysates of drug-treated SW480 colon cancer cells (32P phosphorylation of PDE5/GST substrate); assay type: cell-based, human; conditions: SW480 cells treated 48 hrs; exisulind 200, 400, 600 μM, E4021 0.1, 1, 10 μM; assay with and without added cGMP
# Description: A compound that inhibits all these types of PDE is desirable, accordingly. Below, we provide examples of such PDE-inhibiting compounds.
# SW 480 is known to contain the APC mutation. About 5 million SW480 cells in RPMI 5% serum are added to each of 8 dishes:
# 2-10 cm dishes - - - 30 μL DMSO vehicle control (without drug),
# 3-10 cm dishes - - - 200 μM, 400 μM, 600 μM exisulind in DMSO, and
# The dishes are incubated for 48 hrs at 37° C. in 5% CO2 incubator.
# The liquid media are aspirated from the dishes (the cells will attach themselves to the dishes). The attached cells are washed in each dish with cold PBS, and 200 μL cell lysis buffer (i.e., 50 mM Tris-HCl, 1% NP-40, 150 mM NaCl, 1 mM EDTA, 1 mM Na3VO4, 1 mM NaF, 500 μM IBMX with proteinase inhibitors) is added to each dish. Immediately after the cell lysis buffer is added, the lysed cells are collected by scraping the cells off each dish. The cell lysate from each dish is transferred to a microfuge tube, and the microfuge tubes are incubated at 4° C. for 15 minutes while gently agitating the microfuge tubes to allow the cells to lyse completely. […]
# For each control or drug cell lysate sample to be evaluated, the reaction is started by adding phosphorylation buffer containing 10 μCi ^32P-γ-ATP solution (200 μM ATP, 4.5 mM MgCl; 5 mM KH2PO4; 5 mM K2HPO4;) to each mixture. […]
# PKG [10] = test: Western blot of PKG protein in SW480 cells; assay type: cell-based, human; conditions: 48 hours, vs vehicle 0.1% DMSO
# Description: as §2, §3
# A goat-anti-PKG primary antibody is diluted to the recommended concentration/dilution in fresh TBST/5% nonfat dry milk. The nitrocellulose membrane is placed in the primary antibody solution and incubated one hour at room temperature with agitation. The nitrocellulose membrane is washed three times for ten minutes each with TBST. The nitrocellulose membrane is incubated in a solution containing a secondary POD conjugated rabbit anti-goat antibody for 1 hour at room temperature with agitation. The nitrocellulose membrane is washed three times for ten minutes each time with TBST. […]
# [11] = 91 days, highest dose group (300 mg/kg/day)
# [12] = 28 days, 50, 500 and 2000 mg/kg/day
compound,measurement,setting,value
"CC1=C(CC(=O)NCc2ccccc2)c2cc(F)ccc2/C1=C\c1ccncc1 [Example 38, (Z)-5-Fluoro-2-Methyl-(4-Pyridylidene)-3-(N-Benzyl) Indenylacetamide Hydrochloride]",body weight gain,"rats [1]; ip, 1000 mg/kg",reduced body weight gain
same,necropsy findings,"rats [1]; ip, 1000 mg/kg",mesenteric adhesions seen in some animals
same,body weight gains,"rats [1]; po, 2000 mg/kg",slightly reduced
same,route of elimination (suggested by feces colour),dogs [2]; 91 days oral,most of Compound 38 was being eliminated via the feces
same,feces observation,"dogs [2]; 91 days, 150 and 300 mg/kg/day",Orange discoloration of the feces
same,liver microscopy,"dogs [2]; 91 days, highest dose group",no microscopic alterations
same,body weights,dogs [2]; [11],Slightly lowered body weights
same,liver weights,dogs [2]; [11],increased liver weights
same,toxicological effects overall,"dogs [2]; oral, 91 consecutive days, 50, 150 and 300 mg/kg/day",no toxicological effects
same,macroscopic tissue changes at necropsy,rats [3]; 28 days,No macroscopic tissue changes
same,histopathological evaluation of tissues,"rats [3]; 28 days, 500 mg/kg/day",one female at 500 mg/kg/day had increased mitotic figures in the thyroid gland
same,liver weights,"rats [3]; 28 days, 2000 mg/kg/day",statistically significant increase in liver weights
same,thyroid weights,"rats [3]; 28 days, 2000 mg/kg/day",statistically significant increases in thyroid weights
same,"body weight changes, ophthalmoscopic examinations, hematological and blood chemistry values, urinalysis",rats [3]; [12],unremarkable
same,clinical observations,rats [3]; [12],no abnormal clinical observations
same,liver and thyroid weight increases at the lower doses,"rats [3]; 28 days, 50 and 500 mg/kg/day",not statistically significant
same,histopathological evaluation of tissues,"rats [3]; 28 days, generally limited to a small number of animals at 2000 mg/kg/day","traces of follicular cell hypertrophy, increased numbers of mitotic figures (suggestive of possible cell proliferation) in the thyroid gland and mild centrilobular hypertrophy in the liver"
same,side effects,human patients,no significant side effects at any dose
same,competition with cGMP for the cGMP binding sites,[4],does not bind to the cGMP-binding site of PDE5
same,IC50,PDE1,3 µM
same,PKG1 induction,PKG1β,PKG1 induction in a dose-dependent manner
same,signs of toxicity,rats [5]; 50 mg/kg/day,no observable signs of toxicity
same,treatment-related effects,rats [5]; 500 mg/kg/day,an increase in absolute and relative liver weights in female rats
same,treatment-related effects,rats [5]; 2000 mg/kg/day,"labored breathing and/or abnormal respiratory sounds, decreased weights gains and food consumption in male rats, and increased liver weights in female rats"
same,"hematology, blood chemistry, microscopic pathology","rats [5]; any dose level (50, 500, 2000 mg/kg/day)",No hematological or blood chemistry changes nor any microscopic pathology changes
same,competitive binding with cGMP to PDE5,PDE 5,does competitively (with cGMP) bind to PDE 5
same,GSK3β inactivation by Ser9 phosphorylation,GSK3β,inactivated in vivo by phosphorylation of its Ser9
same,IC50,PDE4,6 µM
same,signs of toxicity,dogs [6]; 1000 mg/kg,no signs of toxicity
same,signs of drug-related effects,dogs [6]; 1000 mg/kg/day,At no time in either dosing phase were any obvious signs of drug-related effects observed
same,clinical biochemistry and hematology,rats [7]; 91 days,no changes in clinical biochemistry and hematology were evident
same,thyroid microscopy,"rats [7]; 91 days, 500 mg/kg/day",follicular cell hypertrophy
same,kidney microscopy,"rats [7]; 91 days, 200 and 500 mg/kg/day",increase in accumulation of hyalin droplets in the kidneys
same,liver microscopy,"rats [7]; 91 days, 200 and 500 mg/kg/day",slight hepatocellular hypertrophy
same,liver and thyroid/parathyroid weights,"rats [7]; 91 days, males and females at 200 and 500 mg/kg/day",dose-related trend to increased liver and thyroid/parathyroid weights
same,toxicological effects overall,"rats [7]; oral, 91 consecutive days, 50, 200 and 500 mg/kg/day",did not produce any major toxicological effects
CC1=C(CC(=O)O)c2cc(F)ccc2/C1=C\c1ccc(S(C)(=O)=O)cc1 [exisulind],PKG activation relative to controls,PKG [8],PKG activation occurred
same,competition with cGMP for the cGMP binding sites,[4],None of the PDE5 inhibitors showed any competition with cGMP in binding
same,PKG1 induction,PKG1β,PKG1 induction in a dose-dependent manner
same,reduction of β-catenin expression compared to control,"β-catenin; SW480 cells, 200, 400 or 600 μM, harvested 48 hours post treatment",50%
same,β-catenin level by Western blot,"β-catenin; SW480 cells, 48 hours, vs vehicle 0.1% DMSO",drop of β-catenin
same,GSK3β inactivation by Ser9 phosphorylation,GSK3β,inactivated in vivo by phosphorylation of its Ser9
same,PKG activity relative to control,PKG [9],causes PKG activity to increase in a dose-dependent manner
same,PKG protein level by Western blot,PKG [10],increase of PKG
